These results are taken from patent publication US8772285B2, “Benzothiazoles having histamine H3 receptor activity” (High Point Pharmaceuticals, LLC, priority 2006, dated 2014).

One assay addresses human H3 receptor (Homo sapiens (Human), UniProt Q9Y5N1). The assay is described as follows: Functional assay II, [35S]GTPγS assay. It counts as biochemical. The conditions noted are these: membranes from CHO cells stably expressing the human H3 receptor. Here is the method: The ability of the compounds to bind and interact with the human H3 receptor as agonists, inverse agonists and/or antagonists, is determined by a functional assay, named [^35S]GTPγS assay. The assay measures the activation of G proteins by catalyzing the exchange of guanosine 5′-diphosphate (GDP) by guanosine 5′-triphosphate (GTP) at the -subunit. The GTP-bounded G proteins dissociate into two subunits, GGTP and Gβγ, which in turn regulate intracellular enzymes and ion channels. GTP is rapidly hydrolysed by the G-sub-unit (GTPases) and the G protein is deactivated and ready for a new GTP exchange cycle. […] GTPγS, a non-hydrolysed analogue of GTP, is determined. This process can be monitored in vitro by incubating cell membranes containing the G protein coupled receptor H3 with GDP and [^35S] […] This procedure is repeated twice except for the last homogenization step, the protein concentration is determined, and membranes are diluted to a protein concentration of 2 mg/ml, aliquoted and kept at −80° C. until use.
In order to study the presence and the potency of an inverse agonist/antagonist, the H3-receptor agonist ligand R-α-methyl histamine (RAMHA) is added. The ability of the test compound to counteract the effect of RAMHA is measured. […] The plates are centrifuged at 1500 rpm for 10 min and the radioactivity is measured using a Top-counter. […]

The test system of assay [1] is Sprague-Dawley (SD) male rats. The assay is described as follows: Open cage schedule-fed rat model. It counts as in vivo. The conditions noted are these: dose 15 mg/kg p.o. Here is the method:
The ability of the present compounds to reduce weight is determined using the in vivo open cage Schedule-fed rat model.
Sprague-Dawley (SD) male rats of an age of about 1½ to 2 months and a weight of about 200-250 g are purchased from Møllegård Breeding and Research Centre A/S (Denmark). On arrival they are allowed some days of acclimatisation before being placed in individual open plastic cages. They are habituated to the presence of food (Altromin pelleted rat chow) in their home cage for only 7 hours each day (from 07.30 to 14.30, seven days a week). Water is present ad libitum. Once the consumption of food has stabilised after 7 to 9 days, the animals are ready for use.
Each animal is used only once to avoid carry-over effects between treatments. During the test sessions, the test compound is administered intraperitoneally or orally 30 min before the start of the sessions. One group of animals is administered the test compound at different doses, and a control group of animals receives vehicle. Food and water intake are monitored at 1, 2 and 3 hours post administration.
Any side effects (manifested as barrel-rolling, bushy fur etc.) may rapidly be detected, since the animals are kept in transparent plastic cages to enable continuous monitoring.

Structures can show the parent of a compound that is named as a salt.

human H3 receptor, sequence (Q9Y5N1 whole entry): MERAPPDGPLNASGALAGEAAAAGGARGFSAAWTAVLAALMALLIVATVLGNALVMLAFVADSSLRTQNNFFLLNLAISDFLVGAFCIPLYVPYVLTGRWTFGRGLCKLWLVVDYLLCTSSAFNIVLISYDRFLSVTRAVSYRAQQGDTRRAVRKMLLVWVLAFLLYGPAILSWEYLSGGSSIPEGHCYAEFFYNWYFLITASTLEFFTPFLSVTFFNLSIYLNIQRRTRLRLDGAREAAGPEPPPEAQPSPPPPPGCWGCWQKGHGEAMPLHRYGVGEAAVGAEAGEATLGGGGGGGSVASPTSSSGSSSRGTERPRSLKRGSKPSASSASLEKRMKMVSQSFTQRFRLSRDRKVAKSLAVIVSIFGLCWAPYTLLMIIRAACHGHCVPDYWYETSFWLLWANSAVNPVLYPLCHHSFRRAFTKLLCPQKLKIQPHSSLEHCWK

For `O=C(O)C(F)(F)F.c1cc2nc(N3CCN(C4CC4)CC3)sc2cc1CN1CCCC1` [Example 17, 2-(4-Cyclopropylpiperazin-1-yl)-6-(pyrrolidin-1-ylmethyl)benzothiazole, trifluoroacetate], the Ki on human H3 receptor came to 1.8 nM. Also, the “Open cage schedule-fed rat model, food intake at 3 h” value in assay [1] is on record as 81.2 % of vehicle.
Regarding `c1cc2nc(N3CCN(C4CC4)CC3)sc2cc1CNC1CC1` [Example 27, Cyclopropyl-[2-(4-cyclopropylpiperazin-1-yl)benzothiazol-6-ylmethyl]-amine, trifluoroacetate], affinity at human H3 receptor was put at a Ki of 0.9 nM. For the same molecule, the “Open cage schedule-fed rat model, food intake at 3 h” value in assay [1] is 82.9 % of vehicle.
